Assay results taken from US10596127B2, “Composition for reducing the frequency of urination, method of making and use thereof” (WELLESLEY PHARMACEUTICALS, LLC, priority 2013, dated 2020).

System: PGE2 secretion by mouse bladder cells
Assay: PGE2 ELISA of mouse bladder cell culture supernatants
Format: cell-based
Settings: LPS (1 μg/ml) plus analgesic 5 μM; LPS alone 925 ± 55, unstimulated <20.5
Description: Bladder cells were removed from euthanized animals C57BL/6 mice (8-12 weeks old) and cells were isolated by enzymatic digestion followed by purification on a Percoll gradient. […] Bladder slurries were enzymatically digested for 30 minutes at 37° C. Undigested fragments were further dispersed through a cell-trainer. The cell suspension was pelleted and added to a discontinue 20%, 40% and 75% Percoll gradient for purification on mononuclear cells. Each experiment used 50-60 bladders. […] Cells were cultured at 37° C. in a 5% CO2 atmosphere. Bladder cells were treated with analgesic solutions (50 well) either alone or together with carbachol (10-Molar, 50 μl/well), as an example of non-inflammatory stimuli, or lipopolysaccharide (LPS) of Salmonella typhimurium (1 μg/ml, 50 μl/well), as an example of […] stimuli. […] Cells were fixed, permeabilized and blocked for detection of Cyclooxygenase-2 (COX2) using a fluorogenic substrate. In selected experiment cells were stimulated 12 hours in vitro for analysis of COX2 responses […] More specifically, culture supernatants or PGE2 standards were added to the wells of a 96-well polystyrene microplate coated with a goat anti-mouse polyclonal antibody. After one hour incubation on a microplate shaker, an HRP-conjugated PGE2 was added and plates incubated for an additional two hours at room temperature. The plates were then washed and HRP substrate solution added to each well. The color was allowed to develop for 30 min and the reaction stopped by addition sulfuric acid before reading the plate at 450 nm with wavelength correction at 570 nm. Results are expressed as mean pg/ml of PGE2.

Structure (SMILES)	PGE2 levels [pg/mL]
COc1ccc2cc([C@H](C)C(=O)O)ccc2c1 [Naproxen]	597 ± 19
CC(=O)Oc1ccccc1C(=O)O [Aspirin, Acetylsalicylic acid]	588 ± 21

Same assay, conditions: LPS (1 μg/ml) plus analgesic 50 μM; LPS alone 925 ± 55, unstimulated <20.5

Structure (SMILES)	PGE2 levels [pg/mL]
COc1ccc2cc([C@H](C)C(=O)O)ccc2c1 [Naproxen]	588 ± 37
CC(=O)Oc1ccccc1C(=O)O [Aspirin, Acetylsalicylic acid]	571 ± 53

Same assay, conditions: LPS (1 μg/ml); analgesic 5 or 50 μM

Structure (SMILES)	effect on the effect of LPS on PGE2 secretion
COc1ccc2cc([C@H](C)C(=O)O)ccc2c1 [Naproxen]	suppressed
CC(=O)Oc1ccccc1C(=O)O [Aspirin, Acetylsalicylic acid]	suppressed

System: TNFα secretion by normal human bladder smooth muscle cells
Assay: TNFα ELISA of normal human bladder smooth muscle cell supernatants
Format: cell-based
Settings: Carbachol 10^−3 M plus analgesic 50 μM; carbachol alone 286, unstimulated <5
Description: (§1) Culture supernatants were subjected to cytokine-specific ELISA to determine IL-1β, IL-6 and TNF-α responses in cultures of macrophages treated with analgesic, LPS alone or a combination of LPS and analgesic. The assays were performed on Nunc MaxiSorp Immunoplates (Nunc) coated overnight with 100 μl of anti-mouse IL-6, TNF-α mAbs (BD Biosciences) or IL-1β mAb (R&D Systems) in 0.1 M sodium bicarbonate buffer (pH 9.5). After two washes with PBS (200 μl per well), 200 μl of PBS 3% BSA were added in each well (blocking) and the plates incubated for 2 hours at room temperature. Plates were washed again two times by addition of 200 μl per well, 100 μl of cytokine standards and serial dilutions of culture supernatants were added in duplicate and the plates were incubated overnight at 4° C. Finally, the plates were washed twice and incubated with 100 μl of secondary biotinylated anti-mouse IL-6, TNFα mAbs (BD Biosciences) or IL-1β (R&D Systems) followed by peroxidase-labelled goat anti-biotin mAb (Vector Laboratories). The colorimetric reaction was developed by the addition of 2,2′-azino-bis(3)-ethylbenzylthiazoline-6-sulfonic acid (ABTS) substrate and H2O2 (Sigma) and the absorbance measured at 415 nm with a Victor® V multilabel plate reader (PerkinElmer).
(§2) Normal human bladder smooth muscle cells were isolated by enzymatic digestion from macroscopically normal pieces of human bladder. Cells were expended in vitro by culture at 37° C. in a 5% CO2 atmosphere in RPMI 1640 supplemented with 10% fetal bovine serum, 15 mM HEPES, 2 mM L-glutamine, 100 U/ml penicillin, and […] of streptomycin and passage once a week by treatment with trypsin to detach cells followed by reseeding in a new culture flask. The first week of culture, the culture medium was supplemented with 0.5 ng/ml epidermal growth factor, 2 ng/ml fibroblast growth factor, and 5 μg/ml insulin.
(§3) Bladder smooth muscle cells trypsinized and seeded in microculture plates at a cell density of 3×10^4 cells per well in 100 μl were treated with analgesic solutions (50 μl/well) either alone or together carbachol (10-Molar, 50 μl/well), as an example of non-inflammatory stimuli, or lipopolysaccharide (LPS) of Salmonella typhimurium (1 μg/ml, 50 μl/well), as an example of […] stimuli. When no other effectors were added to the cells, 50 μl of RPMI 1640 without fetal bovine serum were added to the wells to adjust the final volume to 200 μl.
(§4) After 24 hours of culture, 150 μl of culture supernatants were collected, spun down for 2 min at 8,000 rpm at 4° C. to remove cells and debris and stored at −70° C. for analysis of Prostaglandin E2 (PGE2) responses by ELISA. Cells were fixed, permeabilized and blocked for detection of COX2 using a fluorogenic substrate. In selected experiment cells were stimulated 12 hours in vitro for analysis of COX2, PGE2 and cytokine responses.
(§5) COX2 and PGE2 responses were analyzed as described in Example 3. Cytokine responses were analyzed as described in Example 2.

Structure (SMILES)	TNFα (pg/ml) Subject 2 [pg/mL]
COc1ccc2cc([C@H](C)C(=O)O)ccc2c1 [Naproxen]	137
CC(=O)Oc1ccccc1C(=O)O [Aspirin, Acetylsalicylic acid]	142

Same assay, conditions: Carbachol 10^−3 M plus analgesic 50 μM; carbachol alone 350, unstimulated <5; mean of duplicates

Structure (SMILES)	TNFα (pg/ml) Subject 1 [pg/mL]
COc1ccc2cc([C@H](C)C(=O)O)ccc2c1 [Naproxen]	129
CC(=O)Oc1ccccc1C(=O)O [Aspirin, Acetylsalicylic acid]	110

Same assay, conditions: LPS-induced responses: analgesic at either 5 μM or 50 μM

Structure (SMILES)	effect on the effect of carbachol and LPS on TNFα responses
COc1ccc2cc([C@H](C)C(=O)O)ccc2c1 [Naproxen]	suppress
CC(=O)Oc1ccccc1C(=O)O [Aspirin, Acetylsalicylic acid]	suppress

System: IL-6 secretion by normal human bladder smooth muscle cells
Assay: IL-6 ELISA of normal human bladder smooth muscle cell supernatants
Format: cell-based
Settings: Carbachol 10^−3 M plus analgesic 50 μM; carbachol alone 232, unstimulated <5; mean of duplicates
Description: as §1, §2, §3, §4, §5

Structure (SMILES)	IL-6 (pg/ml) Subject 1 [pg/mL]
COc1ccc2cc([C@H](C)C(=O)O)ccc2c1 [Naproxen]	114
CC(=O)Oc1ccccc1C(=O)O [Aspirin, Acetylsalicylic acid]	95

Same assay, conditions: Carbachol 10^−3 M plus analgesic 50 μM; carbachol alone 278, unstimulated <5

Structure (SMILES)	IL-6 (pg/ml) Subject 2 [pg/mL]
COc1ccc2cc([C@H](C)C(=O)O)ccc2c1 [Naproxen]	127
CC(=O)Oc1ccccc1C(=O)O [Aspirin, Acetylsalicylic acid]	146

Same assay, conditions: LPS-induced responses: analgesic at either 5 μM or 50 μM

Structure (SMILES)	effect on the effect of carbachol and LPS on IL-6 responses
COc1ccc2cc([C@H](C)C(=O)O)ccc2c1 [Naproxen]	suppress
CC(=O)Oc1ccccc1C(=O)O [Aspirin, Acetylsalicylic acid]	suppress

System: TNFα secretion by normal human bladder smooth muscle cells
Assay: TNFα ELISA of normal human bladder smooth muscle cell supernatants
Format: cell-based
Settings: LPS (10 μg/ml) plus analgesic 5 μM; LPS alone 4107

Structure (SMILES)	TNFα (pg/ml) Subject 2 [pg/mL]
COc1ccc2cc([C@H](C)C(=O)O)ccc2c1 [Naproxen]	2215
CC(=O)Oc1ccccc1C(=O)O [Aspirin, Acetylsalicylic acid]	2187

Same assay, conditions: LPS (10 μg/ml) plus analgesic 5 μM; LPS alone 5725; mean of duplicates

Structure (SMILES)	TNFα (pg/ml) Subject 1 [pg/mL]
COc1ccc2cc([C@H](C)C(=O)O)ccc2c1 [Naproxen]	2591
CC(=O)Oc1ccccc1C(=O)O [Aspirin, Acetylsalicylic acid]	2479

Same assay, conditions: LPS (10 μg/ml) plus analgesic 50 μM; LPS alone 4107

Structure (SMILES)	TNFα (pg/ml) Subject 2 [pg/mL]
COc1ccc2cc([C@H](C)C(=O)O)ccc2c1 [Naproxen]	2192
CC(=O)Oc1ccccc1C(=O)O [Aspirin, Acetylsalicylic acid]	2089

Same assay, conditions: LPS (10 μg/ml) plus analgesic 50 μM; LPS alone 5725; mean of duplicates

Structure (SMILES)	TNFα (pg/ml) Subject 1 [pg/mL]
COc1ccc2cc([C@H](C)C(=O)O)ccc2c1 [Naproxen]	2427
CC(=O)Oc1ccccc1C(=O)O [Aspirin, Acetylsalicylic acid]	2266

System: IL-6 secretion by normal human bladder smooth muscle cells
Assay: IL-6 ELISA of normal human bladder smooth muscle cell supernatants
Format: cell-based
Settings: LPS (10 μg/ml) plus analgesic 5 μM; LPS alone 4383

Structure (SMILES)	IL-6 (pg/ml) Subject 2 [pg/mL]
COc1ccc2cc([C@H](C)C(=O)O)ccc2c1 [Naproxen]	2229
CC(=O)Oc1ccccc1C(=O)O [Aspirin, Acetylsalicylic acid]	2089

Same assay, conditions: LPS (10 μg/ml) plus analgesic 5 μM; LPS alone 4838; mean of duplicates

Structure (SMILES)	IL-6 (pg/ml) Subject 1 [pg/mL]
COc1ccc2cc([C@H](C)C(=O)O)ccc2c1 [Naproxen]	2077
CC(=O)Oc1ccccc1C(=O)O [Aspirin, Acetylsalicylic acid]	2199

Same assay, conditions: LPS (10 μg/ml) plus analgesic 50 μM; LPS alone 4383

Structure (SMILES)	IL-6 (pg/ml) Subject 2 [pg/mL]
COc1ccc2cc([C@H](C)C(=O)O)ccc2c1 [Naproxen]	2028
CC(=O)Oc1ccccc1C(=O)O [Aspirin, Acetylsalicylic acid]	2010

Same assay, conditions: LPS (10 μg/ml) plus analgesic 50 μM; LPS alone 4838; mean of duplicates

Structure (SMILES)	IL-6 (pg/ml) Subject 1 [pg/mL]
COc1ccc2cc([C@H](C)C(=O)O)ccc2c1 [Naproxen]	2102
CC(=O)Oc1ccccc1C(=O)O [Aspirin, Acetylsalicylic acid]	1987
